Results as given in the NIST ThermoML archive (doi:10.1021/acs.jced.6b00128).

Settings: Liquid, Falling or rolling sphere viscometry

CCCCC(CC)COC(=O)c1ccc(C(=O)OCC(CC)CCCC)c(C(=O)OCC(CC)CCCC)c1 (stereo not drawn) [tris(2-ethylhexyl) trimellitate]
Settings | viscosity [mPa·s]
315.1 K, 8710 kPa | 92.64
315.1 K, 23090 kPa | 125
315.1 K, 36550 kPa | 163.5
315.1 K, 69620 kPa | 301.3
315.1 K, 71420 kPa | 310.8
315.1 K, 104200 kPa | 540.6
315.1 K, 138800 kPa | 934
347.1 K, 9180 kPa | 22.72
347.1 K, 22490 kPa | 28.88
347.1 K, 36420 kPa | 36.54
347.1 K, 70160 kPa | 62.43
347.1 K, 70370 kPa | 62.32
347.1 K, 104100 kPa | 101.1
347.1 K, 138500 kPa | 159.1
347.1 K, 173500 kPa | 244.9
347.1 K, 219900 kPa | 420.8
387.5 K, 11780 kPa | 7.262
387.5 K, 22080 kPa | 8.542
387.5 K, 36110 kPa | 10.48
387.5 K, 70650 kPa | 16.6
387.5 K, 72750 kPa | 17.21
387.5 K, 104700 kPa | 25.32
387.5 K, 140100 kPa | 37.04
387.5 K, 173400 kPa | 51.68
387.5 K, 215400 kPa | 77.27
428.6 K, 9400 kPa | 3.143
428.6 K, 21670 kPa | 3.632
428.6 K, 36940 kPa | 4.46
428.6 K, 70470 kPa | 6.643
428.6 K, 105400 kPa | 9.7
428.6 K, 139500 kPa | 13.2
428.6 K, 172300 kPa | 17.63
428.6 K, 203200 kPa | 22.51
428.6 K, 237600 kPa | 29.74
477.8 K, 11620 kPa | 1.649
477.8 K, 23680 kPa | 1.916
477.8 K, 37690 kPa | 2.232
477.8 K, 37760 kPa | 2.235
477.8 K, 70980 kPa | 3.227
477.8 K, 105500 kPa | 4.336
477.8 K, 106000 kPa | 4.336
477.8 K, 139300 kPa | 5.743
477.8 K, 174200 kPa | 7.352
477.8 K, 196800 kPa | 8.536
477.8 K, 219300 kPa | 10.02
477.8 K, 240800 kPa | 11.62
527.4 K, 10410 kPa | 1.015
527.4 K, 23110 kPa | 1.161
527.4 K, 36430 kPa | 1.333
527.4 K, 69910 kPa | 1.79
527.4 K, 105200 kPa | 2.466
527.4 K, 105700 kPa | 2.469
527.4 K, 139000 kPa | 3.097
527.4 K, 172900 kPa | 3.835
527.4 K, 200700 kPa | 4.578
527.4 K, 201600 kPa | 4.601
527.4 K, 223700 kPa | 5.224
527.4 K, 241600 kPa | 5.761
